Drawing on patent publication US10344019B2 (priority 2010, dated 2019), this text covers EC50 for 17 compounds.

SMILES strings stand for the structures. Where only a bound is given, the exact number is not on record here.

Holding throughout (type): cell-based
The test system of assay [1] is HCV 2a Rluc cells (NS5A chimeric genotype 2a JFH-1 replicon with genotype 2a J6 strain NS5A gene, M31 present). Kind of assay: HCV replicon reporter assay, genotype 2a J6 (M31 present). To be noted: Hepatitis C virus, read-out: 2a J6. The method, boiled down:
(§1)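 Replicon cells stably carrying the listed RLuc-encoding dicistronic replicons were seeded and treated with DMSO serial dilutions of compound (10 mM stocks) diluted into culture medium. After 72 h, cells were lysed and Renilla luciferase activity measured. EC50 was derived by non-linear regression.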
In general terms: A replicon is a self-replicating genome or part of one, used to study replication in cells.

Assay [2] has as its system HCV 2a JFH-1 Rluc cells (dicistronic genotype 2a JFH-1 replicon, RLuc reporter). In words: microbe, parasite or virus in culture. As to conditions: Hepatitis C virus, genotype 2a JFH-1 replicon; read-out: 2a JFH. The procedure, abridged: as §1
The test system of assay [3] is HCV 3a RLuc cells (NS5A chimeric genotype 1b Con1 replicon with consensus genotype 3a NS5A gene). In words: microbe, parasite or virus in culture. As to conditions: Hepatitis C virus, read-out: 3a, genotype 3a replicon. The procedure, abridged:
as §1

The subject of assay [4] is HCV 1b RLuc cells (dicistronic genotype 1b Con1 replicon, RLuc reporter). Kind of assay: microbe, parasite or virus in culture. To be noted: Hepatitis C virus, read-out: 1b (nM). The method, boiled down: as §1
Assay [5] relates to HCV 1a RLuc cells (dicistronic genotype 1a H77 replicon, RLuc reporter). In words: microbe, parasite or virus in culture. As to conditions: Hepatitis C virus, genotype 1a replicon; read-out: 1a. The method, boiled down:
as §1

Assay [6] deals with HCV 2b Rluc cells (NS5A chimeric genotype 2a JFH-1 replicon with genotype 2b MD2b-1 NS5A gene, M31 present). Kind of assay: microbe, parasite or virus in culture. As to conditions: Hepatitis C virus, read-out: 2b. The method, boiled down:
as §1

Assay [7] concerns HCV 4a Rluc cells (NS5A chimeric genotype 1b Con1 replicon with genotype 4a NS5A gene). Kind of assay: microbe, parasite or virus in culture. As to conditions: Hepatitis C virus, read-out: 4a. The procedure, abridged:
as §1

In the case of `COC(=O)N[C@H](C(=O)N1CCC[C@H]1c1nc2ccc3c(F)c(-c4ccc5c(ccc6nc([C@@H]7CCCN7C(=O)[C@@H](NC(=O)OC)C(C)C)[nH]c65)c4F)ccc3c2[nH]1)C(C)C` [Example 457], the EC50 in assay [1] was more than 44 nM; in assay [2] it was 0.001 to 0.999 nM; in assay [3], 0.001 to 0.99 nM; in assay [4], 0.009 nM; in assay [5] it was 0.001 to 0.999 nM; in assay [6], more than 44 nM. Moreover, the EC50 in assay [7] was 0.001 to 0.99 nM.
Take `COC[C@H]1C[C@@H](c2ncc(-c3ccc(-c4ccc5c(c4)OCc4nc([C@@H]6CCCN6C(=O)[C@@H](NC(=O)OC)C(C)C)[nH]c4-5)cc3)[nH]2)N(C(=O)[C@@H](NC(=O)OC)C(C)C)C1` [Example 458]: the EC50 is more than 44 nM in assay [1]; 0.001 to 0.999 nM in assay [2]; 1 to 4.99 nM in assay [3]; 0.085 nM in assay [4]; 0.001 to 0.999 nM in assay [5]; more than 44 nM in assay [6]. The EC50 in assay [7] was 0.001 to 0.99 nM.
For the compound `COC(=O)N[C@H](C(=O)N1[C@@H](C)CC[C@H]1c1ncc(-c2cc3c4c(c2)OCc2cc(-c5cnc([C@@H]6CC[C@H](C)N6C(=O)[C@@H](NC(=O)OC)C(C)C)[nH]5)cc(c2-4)OC3)[nH]1)C(C)C` [Example 460], the EC50 in assay [1] was 1 to 44 nM; in assay [2], 0.001 to 0.999 nM; in assay [3], 0.001 to 0.99 nM; in assay [4], 0.018 nM; in assay [5], 0.001 to 0.999 nM; in assay [6] it was 0.001 to 0.999 nM. Also, the EC50 in assay [7] is 0.001 to 0.99 nM.
Turning to `COC(=O)N[C@@H](C(=O)N1[C@@H](C)CC[C@H]1c1ncc(-c2cc3c4c(c2)OCc2cc(-c5cnc([C@@H]6CC[C@H](C)N6C(=O)[C@H](NC(=O)OC)c6ccccc6)[nH]5)cc(c2-4)OC3)[nH]1)c1ccccc1` [Example 461], the EC50 in assay [1] is 1 to 44 nM; in assay [2], 0.001 to 0.999 nM; in assay [3], 0.001 to 0.99 nM; in assay [4] it was 0.02 nM; in assay [5], 0.001 to 0.999 nM; in assay [6], 0.001 to 0.999 nM. Besides, the EC50 in assay [7] lay in the range of 0.001 to 0.99 nM.
Regarding `CN(C)CC(=O)N[C@@H](C(=O)N1CCC[C@H]1c1ncc(-c2cc3c4c(c2)OCc2cc(-c5cnc([C@@H]6CCCN6C(=O)[C@H](NC(=O)CN(C)C)c6ccccc6)[nH]5)cc(c2-4)OC3)[nH]1)c1ccccc1` [Example 462], the EC50 in assay [1] is 1 to 44 nM; in assay [2], 0.001 to 0.999 nM; in assay [3], 0.001 to 0.99 nM; in assay [4] it was 8.76 nM; in assay [5], 1 to 44 nM; in assay [6], 1 to 44 nM. In assay [7], the EC50 lay within 1 to 4.99 nM.
On to `O=C(CC1CC1)N[C@@H](C(=O)N1CCC[C@H]1c1ncc(-c2cc3c4c(c2)OCc2cc(-c5cnc([C@@H]6CCCN6C(=O)[C@H](NC(=O)CC6CC6)c6ccccc6)[nH]5)cc(c2-4)OC3)[nH]1)c1ccccc1` [Example 465], for which the EC50 was 0.001 to 0.999 nM in assay [1]; 0.001 to 0.999 nM in assay [2]; 0.001 to 0.99 nM in assay [3]; 0.176 nM in assay [4]; 0.001 to 0.999 nM in assay [5]; 0.001 to 0.999 nM in assay [6]. Also, the EC50 in assay [7] lay within 0.001 to 0.99 nM.
Turning to `CC(C)(C)C(=O)N[C@@H](C(=O)N1CCC[C@H]1c1ncc(-c2cc3c4c(c2)OCc2cc(-c5cnc([C@@H]6CCCN6C(=O)[C@H](NC(=O)C(C)(C)C)c6ccccc6)[nH]5)cc(c2-4)OC3)[nH]1)c1ccccc1` [Example 466], the EC50 in assay [1] was 1 to 44 nM; in assay [2], 0.001 to 0.999 nM; in assay [3], 0.001 to 0.99 nM; in assay [4] it was 0.042 nM; in assay [5] it was 0.001 to 0.999 nM; in assay [6], 1 to 44 nM. The EC50 in assay [7] was in the range of 0.001 to 0.99 nM.
In the case of `CC(C)C(=O)N[C@@H](C(=O)N1CCC[C@H]1c1ncc(-c2cc3c4c(c2)OCc2cc(-c5cnc([C@@H]6CCCN6C(=O)[C@H](NC(=O)C(C)C)c6ccccc6)[nH]5)cc(c2-4)OC3)[nH]1)c1ccccc1` [Example 468], the EC50 is 0.001 to 0.999 nM in assay [1]; 0.001 to 0.999 nM in assay [2]; 0.001 to 0.99 nM in assay [3]; 0.113 nM in assay [4]; 0.001 to 0.999 nM in assay [5]; 0.001 to 0.999 nM in assay [6]. In assay [7], the EC50 lay within 0.001 to 0.99 nM.
On to `O=C(N[C@@H](C(=O)N1CCC[C@H]1c1ncc(-c2cc3c4c(c2)OCc2cc(-c5cnc([C@@H]6CCCN6C(=O)[C@H](NC(=O)c6cccnc6)c6ccccc6)[nH]5)cc(c2-4)OC3)[nH]1)c1ccccc1)c1cccnc1` [Example 469], for which the EC50 in assay [1] is 0.001 to 0.999 nM; in assay [2], 0.001 to 0.999 nM; in assay [3], 0.001 to 0.99 nM; in assay [4], 0.752 nM; in assay [5], 0.001 to 0.999 nM; in assay [6], 0.001 to 0.999 nM. Besides, the EC50 in assay [7] was in the range of 0.001 to 0.99 nM.
Take `CCCC(=O)N[C@@H](C(=O)N1CCC[C@H]1c1ncc(-c2cc3c4c(c2)OCc2cc(-c5cnc([C@@H]6CCCN6C(=O)[C@H](NC(=O)CCC)c6ccccc6)[nH]5)cc(c2-4)OC3)[nH]1)c1ccccc1` [Example 470]: the EC50 in assay [1] is 0.001 to 0.999 nM; in assay [2], 0.001 to 0.999 nM; in assay [3], 0.001 to 0.99 nM; in assay [4], 0.148 nM; in assay [5], 0.001 to 0.999 nM; in assay [6], 0.001 to 0.999 nM. Also, the EC50 in assay [7] was 0.001 to 0.99 nM.
With `COC[C@H]1C[C@@H](c2nc3ccc4cc(-c5ccc6c(ccc7nc([C@@H]8C[C@H]9C[C@H]9N8C(=O)[C@@H](NC(=O)OC)C(C)C)[nH]c76)c5)ccc4c3[nH]2)N(C(=O)[C@@H](NC(=O)OC)C(C)C)C1` [Example 471], the EC50 was 0.001 to 0.999 nM in assay [1]; 0.001 to 0.999 nM in assay [2]; 0.001 to 0.99 nM in assay [3]; 0.015 nM in assay [4]; 0.001 to 0.999 nM in assay [5]; 1 to 44 nM in assay [6]. In addition, the EC50 in assay [7] is 0.001 to 0.99 nM.
In the case of `COC(=O)N[C@H](C(=O)N1CCC[C@H]1c1nc(Br)c(-c2cc3c4c(c2)OCc2cc(-c5[nH]c([C@@H]6CCCN6C(=O)[C@@H](NC(=O)OC)C(C)C)nc5Br)cc(c2-4)OC3)[nH]1)C(C)C` [Example 473], the EC50 in assay [1] is 1 to 44 nM; in assay [2], 0.001 to 0.999 nM; in assay [3], 0.001 to 0.99 nM; in assay [4] it was 0.015 nM; in assay [5], 0.001 to 0.999 nM; in assay [6], 1 to 44 nM. Also, in assay [7], the EC50 lay in the range of 0.001 to 0.99 nM.
Regarding `COC[C@H]1C[C@@H](c2nc3ccc4cc(-c5ccc(-c6cnc([C@@H]7CCCN7C(=O)[C@H](NC(=O)OC)c7ccccc7)[nH]6)cc5OCC(F)(F)F)ccc4c3[nH]2)N(C(=O)[C@@H](NC(=O)OC)C(C)C)C1` [Example 474], the EC50 in assay [1] was 1 to 44 nM; in assay [2] it was 0.001 to 0.999 nM; in assay [3], 0.001 to 0.99 nM; in assay [4] it was 0.025 nM; in assay [5], 0.001 to 0.999 nM; in assay [6], 1 to 44 nM. Moreover, the EC50 in assay [7] lay within 0.001 to 0.99 nM.
Regarding `COC[C@H]1C[C@@H](c2nc3ccc4cc(-c5ccc(-c6cnc([C@@H]7CCCN7C(=O)[C@H](NC(=O)CN(C)C)c7ccccc7)[nH]6)cc5)ccc4c3[nH]2)N(C(=O)[C@@H](NC(=O)OC)C(C)C)C1` [Example 476], the EC50 in assay [1] was 0.001 to 0.999 nM; in assay [2] it was 0.001 to 0.999 nM; in assay [3], 0.001 to 0.99 nM; in assay [4] it was 0.099 nM; in assay [5] it was 0.001 to 0.999 nM; in assay [6], 0.001 to 0.999 nM. Further, the EC50 in assay [7] was in the range of 0.001 to 0.99 nM.
In the case of `COC[C@H]1C[C@@H](c2nc3ccc4cc(-c5ccc(-c6cnc([C@@H]7CCCN7C(=O)[C@H](N)c7ccccc7)[nH]6)cc5)ccc4c3[nH]2)N(C(=O)[C@@H](NC(=O)OC)C(C)C)C1` [Example 477], the EC50 in assay [1] was 0.001 to 0.999 nM; in assay [2] it was 0.001 to 0.999 nM; in assay [3], 0.001 to 0.99 nM; in assay [4], 0.089 nM; in assay [5], 0.001 to 0.999 nM; in assay [6] it was 0.001 to 0.999 nM. Also, the EC50 in assay [7] was in the range of 0.001 to 0.99 nM.
With `CCC(=O)N[C@@H](C(=O)N1CCC[C@H]1c1ncc(-c2ccc(-c3ccc4c(ccc5nc([C@@H]6C[C@H](COC)CN6C(=O)[C@@H](NC(=O)OC)C(C)C)[nH]c54)c3)cc2)[nH]1)c1ccccc1` [Example 479], the EC50 in assay [1] was 0.001 to 0.999 nM; in assay [2] it was 0.001 to 0.999 nM; in assay [3], 0.001 to 0.99 nM; in assay [4] it was 0.034 nM; in assay [5], 0.001 to 0.999 nM; in assay [6] it was 0.001 to 0.999 nM. The EC50 in assay [7] is 0.001 to 0.99 nM.
In the case of `COCCC(=O)N[C@@H](C(=O)N1CCC[C@H]1c1ncc(-c2cc3c4c(c2)OCc2cc(-c5cnc([C@@H]6CCCN6C(=O)[C@H](NC(=O)CCOC)c6ccccc6)[nH]5)cc(c2-4)OC3)[nH]1)c1ccccc1` [Example 480], the EC50 was 1 to 44 nM in assay [1]; 0.001 to 0.999 nM in assay [2]; 0.001 to 0.99 nM in assay [3]; 0.684 nM in assay [4]; 0.001 to 0.999 nM in assay [5]; 0.001 to 0.999 nM in assay [6]. Further, the EC50 in assay [7] fell in the range of 0.001 to 0.99 nM.
